Test system: microtubule network of MCF-7 cells
Experiment: Immunofluorescence (confocal) of microtubule network
Assay type: cell-based, human
Settings: MCF-7, 16 h; 10n 0.05, 0.1, 0.5 μM; CA-4 10 nM; paclitaxel 1 μM
Procedure: Subsequently, the effect of the representative compound 10n on the organisation of microtubule cytoskeleton of MCF-7 cells was also determined by confocal microscopy using an anti-tubulin antibody (Figure 8). […] The MCF-7 cell nuclei (stained blue) were also clearly observed (Figure 8A). […] The treatment of MCF-7 breast cancer cells with CA-4 tubulin-targeting agents has been reported to result in the formation of multiple micronuclei and mitotic catastrophes.
Confocal microscopy was used to study the effects on MCF-7 cytoskeleton following treatment with compound 10n following the protocols previously reported. For each experiment, all images were collected on the same day using identical parameters. MCF-7 cells were seeded (1 × 10^5 cells/mL) on eight chamber glass slides. Cells were either untreated or treated with vehicle (1% ethanol (v/v)), CA-4 (10 nM), Paclitaxel (1 μM) and β-lactam compound 10n at 50 nM, 100 nM and 500 nM concentrations for 16 h. The cells were then gently washed in PBS and then fixed for 30 min with 100% ice-cold MeOH. Cells were washed three times in PBS for 10 min and then permeabilised in 0.5% Triton X-100. The cells were subsequently washed in PBS containing 0.1% Tween (PBST), and then blocked in bovine serum albumin (5%) diluted in PBST. Cells were then incubated with a mouse monoclonal anti-α-tubulin−FITC antibody (clone DM1A) (1:200) for 2 h at 20 °C. Following washes in PBST, cells were incubated with Alexa Fluor 488 dye (1:500) for 1 h at 20 °C. Following further washes in PBST, the cells were mounted in Ultra Cruz Mounting Media, which contained 4,6-diamino-2-phenolindol dihydrochloride (DAPI). The images were photographed using Leica SP8 confocal microscopy with the Leica application suite X software program. Experiments were performed on three independent occasions.
Figure 8 Compound 10n depolymerises the microtubule network of MCF-7 breast cancer cells. Cells were treated with (A) vehicle control ([…]), (B) CA-4 (10 nM), (C) paclitaxel (1 μM) and compound 10n, (D) (50 nM), (E) (100 nM) and (F) (500 nM) for 16 h. […]

CC(=O)O[C@H]1C(=O)[C@@]2(C)[C@H]([C@H](OC(=O)c3ccccc3)[C@]3(O)C[C@H](OC(=O)[C@H](O)[C@@H](NC(=O)c4ccccc4)c4ccccc4)C(C)=C1C3(C)C)[C@]1(OC(C)=O)CO[C@@H]1C[C@@H]2O [paclitaxel]
effect on microtubule network: hyper-polymerisation of tubulin

From article PMC8624998, “Synthesis and Antiproliferative Evaluation of 3-Chloroazetidin-2-ones with Antimitotic Activity: Heterocyclic Bridged Analogues of Combretastatin A-4” (Pharmaceuticals, 2021)
